# Experimental data: US20260274892A1, “MACROCYCLIC BROAD SPECTRUM ANTIBIOTICS” (RQx Pharmaceuticals, Inc., priority 2017, published 2026)
# Tested on: Escherichia coli ATCC 25922
# Assay: Minimum inhibitory concentration (MIC), CLSI broth micro-dilution, E. coli
# Type: cell-based
# Settings: Escherichia coli, ATCC25922, 22 h, Table 6, cation adjusted Mueller Hinton Broth + 0.002% Tween-80, 35° C.
# Outline: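 Antibacterial potency is measured as MIC by the CLSI broth dilution method. Bacteria at OD600 0.0005 in Tween-80-supplemented cation-adjusted Mueller Hinton broth face ten twofold compound dilutions for 22 h at 35° C.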
row,Compound,MIC [µM]
1,"Cc1nc(-c2ccc(C3CCCCCC3)cc2)nc(C)c1C(=O)N[C@@H](CCN)C(=O)N(C)[C@@H]1C(=O)N[C@@H](C)C(=O)N[C@H](C(=O)NCC#N)Cc2ccc(OCCN)c(c2)-c2cc1ccc2OCCN (racemic) [Compound 305, rac-(8S,11S,14S)-3,18-bis(2-aminoethoxy)-N-(cyanomethyl)-11-methyl-14-[methyl-[rac-(2S)-4-amino-2-[[2-(4-cycloheptylphenyl)-4,6-dimethyl-pyrimidine-5-carbonyl]amino]butanoyl]amino]-10,13-dioxo-9,12-diazatricyclo[13.3.1.12,6]icosa-1(18),2(20),3,5,15(19),16-hexaene-8-carboxamide]",0.13
2,"Cc1nc(-c2ccc(N3C[C@H](C)C[C@H](C)C3)cc2)nc(C)c1C(=O)N[C@@H](CCN)C(=O)N(C)[C@@H]1C(=O)N[C@@H](C)C(=O)N[C@H](C(=O)NCC#N)Cc2ccc(OCCN)c(c2)-c2cc1ccc2OCCN (racemic) [Compound 327, rac-(8S,11S,14S)-3,18-bis(2-aminoethoxy)-N-(cyanomethyl)-11-methyl-14-[methyl-[rac-(2S)-4-amino-2-[[4,6-dimethyl-2-[4-[rac (3S,5R)-3,5-dimethyl-1-piperidyl]phenyl]pyrimidine-5-carbonyl]amino]butanoyl]amino]-10,13-dioxo-9,12-diazatricyclo[13.3.1.12,6]icosa-1(18),2(20),3,5,15(19),16-hexaene-8-carboxamide]",0.13
3,"Cc1nc(-c2ccc(OC3CCCCC3)cc2)nc(C)c1C(=O)N[C@@H](CCN)C(=O)N[C@@H]1C(=O)N[C@@H](C)C(=O)N[C@H](C(=O)NCC#N)Cc2ccc(OCCN)c(c2)-c2cc1ccc2OCCN (racemic) [Compound 519, rac-(8S,11S,14S)-3,18-bis(2-aminoethoxy)-N-(cyanomethyl)-11-methyl-10,13-dioxo-14-[[rac-(2S)-4-amino-2-[[2-[4-(cyclohexoxy)phenyl]-4,6-dimethyl-pyrimidine-5-carbonyl]amino]butanoyl]amino]-9,12-diazatricyclo[13.3.1.12,6]icosa-1(18),2(20),3,5,15(19),16-hexaene-8-carboxamide]",0.13

# Same assay, conditions: Escherichia coli, ATCC25922, 22 h, Table 7, cation adjusted Mueller Hinton Broth + 0.002% Tween-80, 35° C.
row,Compound,MIC [µM]
1,"COc1c(OC[C@H](O)CN)cc2cc1-c1cc(cc(OC[C@H](O)CN)c1OC)[C@H](N(C)C(=O)[C@H](CCN)NC(=O)c1c(C)nc(-c3ccc(C(C)(C)C)cc3)nc1C)C(=O)N[C@@H](C)C(=O)N[C@H](C(=O)NCC#N)C2 (racemic) [Compound 591, rac-(8S,11S,14S)-N-(cyanomethyl)-3,18-dimethoxy-11-methyl-14-[methyl-[rac-(2S)-4-amino-2-[[2-(4-tert-butylphenyl)-4,6-dimethyl-pyrimidine-5-carbonyl]amino]butanoyl]amino]-10,13-dioxo-4,17-bis[rac-(2R)-3-amino-2-hydroxy-propoxy]-9,12-diazatricyclo[13.3.1.12,6]icosa-1(18),2(20),3,5,15(19),16-hexaene-8-carboxamide]",0.25
2,"Cc1nc(-c2ccc(C(C)(C)C)cc2)nc(C)c1C(=O)N[C@@H](CCN)C(=O)N(C)[C@@H]1C(=O)N[C@@H](C)C(=O)N[C@H](C(=O)NCC#N)Cc2ccc(O)c(c2)-c2cc1ccc2OC(C)CN (mixture of isomers) [Compound 607, rac-(8S,11S,14S)-18-(2-amino-1-methyl-ethoxy)-N-(cyanomethyl)-3-hydroxy-11-methyl-14-[methyl-[rac-(2S)-4-amino-2-[[2-(4-tert-butylphenyl)-4,6-dimethyl-pyrimidine-5-carbonyl]amino]butanoyl]amino]-10,13-dioxo-9,12-diazatricyclo[13.3.1.12,6]icosa-1(18),2(20),3,5,15(19),16-hexaene-8-carboxamide]",0.5
3,"Cc1nc(-c2ccc(C(C)(C)C)cc2)nc(C)c1C(=O)N[C@@H](CCNS(N)(=O)=O)C(=O)N(C)[C@@H]1C(=O)N[C@@H](C)C(=O)N[C@H](C(=O)NCC#N)Cc2ccc(OCCN)c(c2)-c2cc1ccc2OCCN (racemic) [Compound 574, rac-(8S,11S,14S)-3,18-bis(2-aminoethoxy)-N-(cyanomethyl)-11-methyl-14-[methyl-[rac-(2S)-2-[[2-(4-tert-butylphenyl)-4,6-dimethyl-pyrimidine-5-carbonyl]amino]-4-(sulfamoylamino)butanoyl]amino]-10,13-dioxo-9,12-diazatricyclo[13.3.1.12,6]icosa-1(18),2(20),3,5,15(19),16-hexaene-8-carboxamide]",0.5
4,"Cc1nc(-c2ccc(OC3CCCCC3)cc2)cc(N)c1C(=O)N[C@@H](CCN)C(=O)N(C)[C@@H]1C(=O)N[C@@H](C)C(=O)N[C@H](C(=O)NCC#N)Cc2ccc(OCCCN)c(c2)-c2cc1ccc2OCCCN (racemic) [Compound 565, rac-(8S,11S,14S)-3,18-bis(3-aminopropoxy)-N-(cyanomethyl)-11-methyl-14-[methyl-[rac-(2S)-4-amino-2-[[4-amino-6-[4-(cyclohexoxy)phenyl]-2-methyl-pyridine-3-carbonyl]amino]butanoyl]amino]-10,13-dioxo-9,12-diazatricyclo[13.3.1.12,6]icosa-1(18),2(20),3,5,15(19),16-hexaene-8-carboxamide]",0.13
5,"Cc1nc(-c2ccc(C(C)(C)C)cc2)nc(C)c1C(=O)N[C@@H](CCN)C(=O)N(C)[C@@H]1C(=O)N[C@@H](C)C(=O)N[C@H](C(=O)NCC#N)Cc2ccc(OC3CCNCC3)c(c2)-c2cc1ccc2O (racemic) [Compound 609, rac-(8S,11S,14S)-N-(cyanomethyl)-18-hydroxy-11-methyl-14-[methyl-[rac-(2S)-4-amino-2-[[2-(4-tert-butylphenyl)-4,6-dimethyl-pyrimidine-5-carbonyl]amino]butanoyl]amino]-10,13-dioxo-3-(4-piperidyloxy)-9,12-diazatricyclo[13.3.1.12,6]icosa-1(18),2(20),3,5,15(19),16-hexaene-8-carboxamide]",0.5

# Same assay, conditions: Escherichia coli, ATCC25922, Table 6, cation adjusted Mueller Hinton Broth + 0.002% Tween-80, 35° C., 22 hours
row,Compound,MIC [µM]
1,"Cc1cc(-c2ccc(C(C)(C)C)cc2)nc(C)c1C(=O)N[C@@H](CCN)C(=O)N(C)[C@@H]1C(=O)N[C@@H](C)C(=O)N[C@H](C(=O)NCC#N)Cc2ccc(OCCN)c(c2)-c2cc1ccc2OCCN (racemic) [Compound 358, rac-(8S,11S,14S)-3,18-bis(2-aminoethoxy)-N-(cyanomethyl)-11-methyl-14-[methyl-[rac-(2S)-4-amino-2-[[6-(4-tert-butylphenyl)-2,4-dimethyl-pyridine-3-carbonyl]amino]butanoyl]amino]-10,13-dioxo-9,12-diazatricyclo[13.3.1.12,6]icosa-1(18),2(20),3,5,15(19),16-hexaene-8-carboxamide]",0.2
2,"CONCC[C@H](NC(=O)c1cnc(-c2ccc(C(C)(C)C)cc2)nc1C)C(=O)N(C)[C@@H]1C(=O)N[C@@H](C)C(=O)N[C@H](C(=O)NCC#N)Cc2ccc(OCCN)c(c2)-c2cc1ccc2OCCN (racemic) [Compound 460, rac-(8S,11S,14S)-3,18-bis(2-aminoethoxy)-N-(cyanomethyl)-11-methyl-14-[methyl-[rac-(2S)-2-[[2-(4-tert-butylphenyl)-4-methyl-pyrimidine-5-carbonyl]amino]-4-(methoxyamino)butanoyl]amino]-10,13-dioxo-9,12-diazatricyclo[13.3.1.12,6]icosa-1(18),2(20),3,5,15(19),16-hexaene-8-carboxamide]",4.1
3,"Cc1nc(-c2ccc(CC(C)(C)C)cc2)ncc1C(=O)N[C@@H](CCN)C(=O)N(C)[C@@H]1C(=O)N[C@@H](C)C(=O)N[C@H](C(=O)NCC#N)Cc2ccc(OCCN)c(c2)-c2cc1ccc2OCCN (racemic) [Compound 226, rac-(8S,11S,14S)-3,18-bis(2-aminoethoxy)-N-(cyanomethyl)-11-methyl-14-[methyl-[rac-(2S)-4-amino-2-[[2-[4-(2,2-dimethylpropyl)phenyl]-4-methyl-pyrimidine-5-carbonyl]amino]butanoyl]amino]-10,13-dioxo-9,12-diazatricyclo[13.3.1.12,6]icosa-1(18),2(20),3,5,15(19),16-hexaene-8-carboxamide]",0.099
4,"CCCCc1ccc(-c2nc(C)c(C(=O)N[C@@H](CCN)C(=O)N(C)[C@@H]3C(=O)N[C@@H](C)C(=O)N[C@H](C(=O)NCC#N)Cc4ccc(OCCN)c(c4)-c4cc3ccc4OCCN)c(C)n2)nc1 (racemic) [Compound 293, rac-(8S,11S,14S)-3,18-bis(2-aminoethoxy)-N-(cyanomethyl)-11-methyl-14-[methyl-[rac-(2S)-4-amino-2-[[2-(5-butyl-2-pyridyl)-4,6-dimethyl-pyrimidine-5-carbonyl]amino]butanoyl]amino]-10,13-dioxo-9,12-diazatricyclo[13.3.1.12,6]icosa-1(18),2(20),3,5,15(19),16-hexaene-8-carboxamide]",1.5

# Same assay, conditions: Escherichia coli, ATCC25922, Table 7, cation adjusted Mueller Hinton Broth + 0.002% Tween-80, 35° C., 22 hours
row,Compound,MIC [µM]
1,"Cc1nc(-c2ccc(C(C)(C)C)cc2)nc(C)c1C(=O)N[C@@H](CCN)C(=O)N(C)[C@@H]1C(=O)N[C@@H](C)C(=O)N[C@H](C(=O)NCC#N)Cc2cc(c(O)cc2CN)-c2cc1ccc2OCCN (racemic) [Compound 626, rac-(8S,11S,14S)-18-(2-aminoethoxy)-5-(aminomethyl)-N-(cyanomethyl)-3-hydroxy-11-methyl-14-[methyl-[rac-(2S)-4-amino-2-[[2-(4-tert-butylphenyl)-4,6-dimethyl-pyrimidine-5-carbonyl]amino]butanoyl]amino]-10,13-dioxo-9,12-diazatricyclo[13.3.1.12,6]icosa-1(18),2(20),3,5,15(19),16-hexaene-8-carboxamide]",0.25
